The values below come from ChEMBL document CHEMBL1201862, “PubChem BioAssay data set” (2004).

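Interpolation was linear, between the two tested concentrations surrounding the appropriate level; five concentrations were tested over 48 hours in 96-well plates. GI50 is the concentration that inhibits growth by half.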 Activity calls are given as the source filed them. No stated cut-off is given here; in the data, active = GI50 up to about 1.1 µM and inactive = higher.

Test systems include UACC-62; OVCAR-3; SF-539; NCI-H23; SF-268; MOLT-4; SN12C; OVCAR-4; SF-295; SK-MEL-2; A549; SNB-19; A498; NCI-H460; RXF 393; Malme-3M; LOX IMVI; ACHN; M14; TK-10.
Common to all, as to test: NCI-60 cell line screen, 48 h

In the case of `CCCC[S+]([O-])CC(CO)NC(=O)/C=C/c1c(C)[nH]c(=O)[nH]c1=O` (stereo not drawn), the GI50 is 7.52 µM (inactive) with UACC-62; 5 µM (inactive) in the assay on OVCAR-3; 7.38 µM (inactive) in the assay on SF-539; 7.98 µM (inactive) in the assay on NCI-H23; 2.42 µM (inactive) in the assay on SF-268; 8.3 µM (inactive) with MOLT-4. For the same compound, the GI50 was 5.92 µM (inactive) in the assay with SN12C; 0.203 µM (active) in the assay with OVCAR-4; 8.38 µM (inactive) in the assay on SF-295; 6.34 µM (inactive) in the assay on SK-MEL-2; 10.8 µM (inactive) in the assay with A549; 4.89 µM (inactive) in the assay with SNB-19. Also, the GI50 in the assay on A498 was 7.8 µM (inactive); in the assay with NCI-H460, 3.12 µM (inactive); with RXF 393, 11 µM (inactive); in the assay with Malme-3M, 3.14 µM (inactive); in the assay with LOX IMVI, 7.62 µM (inactive).

`COc1ccc(NC(=O)CC(=O)N2N=C(C)C(/N=N\c3ccc(S(=O)(=O)c4ccc(/N=N/C5C(=O)N(C(=O)CC(=O)Nc6ccc(OC)cc6)N=C5C)cc4)cc3)C2=O)cc1` (stereo not drawn): the GI50 was > 100 µM (inactive) in the assay on UACC-62; > 100 µM (inactive) with OVCAR-3; > 100 µM (inactive) with ACHN; > 100 µM (inactive) with SF-539; > 100 µM (inactive) in the assay with NCI-H23; 35.9 µM (inactive) in the assay on SF-268. The GI50 with M14, with MOLT-4, in the assay on SN12C, with OVCAR-4, in the assay with SF-295 and in the assay with SK-MEL-2 was > 100 µM (inactive) throughout. For the same compound, the GI50 with A549 was > 100 µM (inactive); in the assay with SNB-19, > 100 µM (inactive); with A498 it was > 100 µM (inactive); in the assay with NCI-H460, > 100 µM (inactive); in the assay on RXF 393, 31.3 µM (inactive); in the assay with Malme-3M, > 100 µM (inactive). Also, the GI50 in the assay with TK-10 and with LOX IMVI was > 100 µM (inactive) in each case.

For the compound `CSc1nc(NC2OCC(OC(C)=O)C(OC(C)=O)C2OC(C)=O)c(/N=C(\C)C(C)=O)c(=O)[nH]1` (stereo not drawn), the GI50 with ACHN, in the assay with SF-539, in the assay on NCI-H23, with SF-268, in the assay with M14 and in the assay with MOLT-4 was > 100 µM (inactive) in each case. In addition, the GI50 with SN12C, in the assay on OVCAR-4, in the assay with SF-295, with SK-MEL-2, in the assay with A549 and in the assay with SNB-19 was > 100 µM (inactive) in each case. Moreover, the GI50 in the assay with A498, in the assay with NCI-H460, with RXF 393, in the assay with Malme-3M, in the assay on TK-10 and with LOX IMVI was > 100 µM (inactive) in each case.

With `COc1ccc2c(C)cc(N/N=C(\C)C=O)nc2c1`, the GI50 with UACC-62 is 12.6 µM (inactive); with OVCAR-3 it was 2.25 µM (inactive); in the assay with ACHN it was 15.6 µM (inactive); with SF-539 it was 6.25 µM (inactive); with NCI-H23, 11.8 µM (inactive); in the assay on SF-268, 13.8 µM (inactive). Further, the GI50 with M14 is 13.6 µM (inactive); with MOLT-4, 4.51 µM (inactive); in the assay on SN12C it was 11.2 µM (inactive); in the assay with OVCAR-4, 11.2 µM (inactive); in the assay on SF-295, 10 µM (inactive); in the assay on SK-MEL-2, 13.4 µM (inactive). Besides, the GI50 was 18.5 µM (inactive) in the assay with A549; 13 µM (inactive) in the assay with SNB-19; 14.5 µM (inactive) in the assay with A498; 8.99 µM (inactive) in the assay on NCI-H460; 10.6 µM (inactive) in the assay with RXF 393; 12 µM (inactive) in the assay on Malme-3M. The results for the GI50 with TK-10 and in the assay with LOX IMVI were 15.7 µM (inactive) and 10.2 µM (inactive), respectively.

Regarding `COC(=O)C(C)NP(=O)(N1CC1)N1CC1` (stereo not drawn), the GI50 in the assay on UACC-62 was 61.8 µM (inactive); in the assay on ACHN, 27.9 µM (inactive); in the assay with SF-539, > 100 µM (inactive); in the assay with NCI-H23 it was 97.3 µM (inactive); in the assay on SF-268, > 100 µM (inactive); in the assay with M14 it was 83 µM (inactive). The GI50 is 40.3 µM (inactive) in the assay with MOLT-4; 73.6 µM (inactive) in the assay with SN12C; > 100 µM (inactive) in the assay with OVCAR-4; 92.5 µM (inactive) with SF-295; > 100 µM (inactive) with SK-MEL-2; > 100 µM (inactive) with A549. Besides, the GI50 in the assay with SNB-19 is > 100 µM (inactive); with A498, > 100 µM (inactive); in the assay on RXF 393, > 100 µM (inactive); in the assay with Malme-3M it was > 100 µM (inactive); in the assay on TK-10, > 100 µM (inactive); with LOX IMVI, 80 µM (inactive).

For the compound `Cc1ccc(C)c(NC(=O)CCC(=O)CC(=O)C(C)(C)C)c1`, the GI50 with UACC-62, in the assay on OVCAR-3, with ACHN, with SF-539, with NCI-H23 and in the assay with SF-268 was > 100 µM (inactive) each time. Besides, the GI50 in the assay on M14, in the assay on MOLT-4, in the assay with SN12C, with OVCAR-4, with SK-MEL-2 and with A549 was > 100 µM (inactive) each time. The GI50 in the assay on SNB-19, with A498, with NCI-H460, in the assay on RXF 393, in the assay with Malme-3M and in the assay on TK-10 was > 100 µM (inactive) each time. For the same compound, the GI50 with LOX IMVI is > 100 µM (inactive).

Regarding `CCOC(=O)Cc1cnc(NC(NC(=O)CC)(C(F)(F)F)C(F)(F)F)s1`, the GI50 in the assay with UACC-62, in the assay on OVCAR-3, in the assay with ACHN, in the assay on SF-539, in the assay on NCI-H23 and in the assay on SF-268 was > 100 µM (inactive) throughout. Further, the GI50 in the assay with M14, with MOLT-4, in the assay with SN12C, in the assay on SK-MEL-2, in the assay on SNB-19 and with A498 was > 100 µM (inactive) each time. Moreover, the GI50 with NCI-H460, in the assay with RXF 393, in the assay with Malme-3M, in the assay with TK-10 and with LOX IMVI was > 100 µM (inactive) in each case.

For `Sc1nnc(-c2ccnc(-c3nnc(S)[nH]3)c2)[nH]1`, the GI50 with UACC-62, in the assay on OVCAR-3, in the assay with ACHN, in the assay with SF-539, in the assay on NCI-H23 and in the assay on SF-268 was > 100 µM (inactive) throughout. The GI50 with M14, in the assay with MOLT-4, in the assay with SN12C, in the assay on OVCAR-4, with SF-295 and with SK-MEL-2 was > 100 µM (inactive) in each case. Besides, the GI50 with A549, in the assay with SNB-19, in the assay with A498, in the assay with NCI-H460, in the assay with RXF 393 and in the assay with Malme-3M was > 100 µM (inactive) throughout. Further, the GI50 with TK-10 and in the assay with LOX IMVI was > 100 µM (inactive) in each case.

On to `COc1cc(/N=N\c2cccc(S(=O)(=O)O)c2)ccc1/N=N\c1ccc(/C=C/c2ccc(-n3on3-c3ccc(/C=C/c4ccc(/N=N/c5ccc(/N=N\c6cccc(S(=O)(=O)O)c6)cc5OC)cc4S(=O)(=O)O)c(S(=O)(=O)O)c3)cc2S(=O)(=O)O)c(S(=O)(=O)O)c1`, for which the GI50 in the assay on UACC-62, with OVCAR-3, in the assay on SF-539, in the assay on NCI-H23, in the assay on SF-268 and in the assay with MOLT-4 was > 100 µM (inactive) each time. Further, the GI50 in the assay with SN12C, in the assay with OVCAR-4, in the assay with SF-295, in the assay on SK-MEL-2, in the assay on A549 and in the assay on SNB-19 was > 100 µM (inactive) each time. Moreover, the GI50 in the assay on A498, in the assay on NCI-H460, with RXF 393, in the assay on Malme-3M and in the assay on LOX IMVI was > 100 µM (inactive) throughout.

For the compound `COc1cc(C2c3cc4c(cc3[C@@H](Nc3ccc(Oc5ccccc5)cc3)C3COC(=O)[C@H]23)OCO4)cc(OC)c1O` (stereo partly drawn), the GI50 was 0.869 µM (active) in the assay with UACC-62; > 62.2 µM (inactive) in the assay with OVCAR-3; 0.536 µM (active) in the assay with SF-539; 1.12 µM (inactive) in the assay on NCI-H23; 2.52 µM (inactive) in the assay on SF-268; 0.329 µM (active) in the assay with MOLT-4. Besides, the GI50 in the assay on SN12C is 2.7 µM (inactive); with OVCAR-4 it was 7.11 µM (inactive); in the assay with SF-295 it was 1.27 µM (inactive); in the assay with SK-MEL-2, > 29.9 µM (inactive); in the assay with A549, 0.916 µM (active); in the assay with SNB-19 it was 3.27 µM (inactive). Also, the GI50 in the assay on A498 was 1.24 µM (inactive); with NCI-H460, 0.0867 µM (active); in the assay on RXF 393, 1.29 µM (inactive); in the assay on Malme-3M, 3.7 µM (inactive); in the assay with LOX IMVI it was 2.43 µM (inactive).
